Assay [1] concerns HEK293 (embryonic kidney) cells. The experiment in a line: Cytotoxicity assay (7-AAD viability, flow cytometry), HEK293. In kind it is cell-based, human. The following applies: Homo sapiens, HEK293, mean ± SE, at least three experiments in duplicate; viable cells. A digest of the protocol: (§1)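 Adherent HeLa, HEK293 and normal human fibroblasts (5 × 10⁴/well, DMEM with 10% FBS, 37 °C, 5% CO2) were treated with compounds at 1, 5, 10, 15, 30 and 60 μM. Viability was read as 7-AAD exclusion by flow cytometry after 15 min staining.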

Assay [2] relates to HeLa (cervical cancer) cells. The experiment in a line: Cytotoxicity assay (7-AAD viability, flow cytometry), HeLa. Conditions: Homo sapiens, HeLa, mean ± SE, at least three experiments in duplicate; viable cells. The assay is classed as cell-based, human. The procedure, abridged: as §1

Counter-ions that a name gives are not always drawn.

With `CC(=O)O[C@H]1CC[C@@]2(C)C(CC[C@]3(C)C2CCC2C4C(C(C)C)CC[C@]4(C(=O)OCC(CO)(CO)NC(=N)N)CC[C@]23C)C1(C)C` (stereo partly drawn) [Compound 15c, 3β-[2-Guanidine-3-hydroxy-2-(hydroxymethyl)propyl]-3-O-acetyl-lupane-28-oate hydrochloride], the results for the half-maximal inhibitory concentration (IC50) in assay [1] and in assay [2] were 16 ± 0.27 µM and 14 ± 0.31 µM, respectively.

In the case of `CC(=O)O[C@H]1CC[C@@]2(C)C(CC[C@]3(C)C2CCC2C4C(C(C)C)CC[C@]4(C(=O)OCC(N)(CO)CO)CC[C@]23C)C1(C)C` (stereo partly drawn) [Compound 15, 3β-[2-Amino-3-hydroxy-2-(hydroxymethyl)propyl]-3-O-acetyl-lupane-28-oate], the 50% inhibitory concentration (IC50) amounted to 17 ± 0.25 µM in assay [1] and 19 ± 0.49 µM in assay [2].

Source of the values: paper PMC6278366, “Synthesis and Evaluation of Anticancer Activities of Novel C-28 Guanidine-Functionalized Triterpene Acid Derivatives” (Molecules, 2018).
